In one assay the target is VEGFR-17T G4. The experiment in a line: Microscale thermophoresis (MST) binding to VEGFR-17T G4. Also noted: species or system human. To be noted: 25°C, 20 nM FITC-labelled peptide, same buffer, n.d. = not determined due to undetectable binding. As for the experimental part: (§1) MST experiments were conducted using a Monolith NT.115 instrument (NanoTemper Technologies, Munich, Germany) at 25°C with medium MST power settings. […] DNA samples were also diluted using the same buffer supplemented with 0.1% Tween. During MST experiments, the concentration of the labelled peptide was kept constant at 20 nM, while a serial dilution of the investigated DNA molecules (ranging from 10 or 20 μM) was prepared and mixed with the peptide solution in a 1:1 volume ratio. All the samples, with a final concentration of 5% DMSO, were loaded into standard capillaries (NanoTemper Technologies) for MST measurements. Data analysis was carried out using the MO.Affinity Analysis (v2.3) software provided with the instrument.
A general note: In MST a laser heats a spot of the sample, and binding alters the fluorescence response.

Another assay deals with HER2 G4. The experiment in a line: Isothermal titration calorimetry (ITC) with HER2 G4. The class given is binding, human. To be noted: ITC at 25°C, triplicate. How it is done: ITC experiments were conducted at 25°C using a nano-ITC Low Volume calorimeter (TA instruments, Lindon, UT, USA). DNA and peptide solutions were prepared using the same batch of buffer (5 mM KH2PO4/K2HPO4 buffer containing 20 mM KCl, pH 7.0) to prevent differences in buffer composition and pH. Each titration consisted of 25 injections of a 2 μl peptide solution (280–400 μM) sequentially injected using a computer-controlled 50 μl syringe, into the calorimetric vessel (190 μl) containing the oligonucleotide (16–20 μM). A spacing of 300 s between each injection was applied to allow the system to reach the equilibrium. The heat generated by peptide dilution was assessed in a control experiment by injecting the peptide solution into the buffer (Supplementary Figure S30). All measurements were performed in triplicate. Subsequently, the interaction heat for each injection was calculated considering the correction for the heat of peptide dilution. The corrected heat values were plotted as a function of the molar ratio to provide binding isotherms. […] The equilibrium dissociation constant (Kd), Gibbs free-energy change and entropy change were determined using the following relationships: Kd = 1/Ka, ΔG° = -RT ln Ka (R = 8.314 J mol^−1 K^−1, T = 298.15 K), and TΔS° = ΔH° – ΔG°.
(In ITC the heat of successive injections is recorded.)

The next assay deals with HT1 G4. Kind of assay: Microscale thermophoresis (MST) binding to HT1 G4. Details: species or system human. To be noted: 25°C, 20 nM FITC-labelled peptide, DNA serial dilution, 5 mM KH2PO4/K2HPO4 pH 7.0, 20 mM KCl, 0.1% Tween, 5% DMSO. As for the experimental part:
as §1

Assay [1] deals with c-KIT2 G4. The experiment in a line: Microscale thermophoresis (MST) binding to c-KIT2 G4. Also noted: species or system human. The note with it: 25°C, 20 nM FITC-labelled peptide, DNA serial dilution, 5 mM KH2PO4/K2HPO4 pH 7.0, 20 mM KCl, 0.1% Tween, 5% DMSO. As for the experimental part: as §1
In the next assay the target is HT2 G4. Kind of assay: Microscale thermophoresis (MST) binding to HT2 G4. Also noted: species or system human. The note with it: 25°C, 20 nM FITC-labelled peptide, DNA serial dilution, 5 mM KH2PO4/K2HPO4 pH 7.0, 20 mM KCl, 0.1% Tween, 5% DMSO. As for the experimental part: as §1
Assay [2] deals with c-KIT2 G4. Kind of assay: Isothermal titration calorimetry (ITC) with c-KIT2 G4. To be noted: ITC at 25°C, triplicate. The format is binding, human. As for the experimental part:
ITC experiments were conducted at 25°C using a nano-ITC Low Volume calorimeter (TA instruments, Lindon, UT, USA). DNA and peptide solutions were prepared using the same batch of buffer (5 mM KH2PO4/K2HPO4 buffer containing 20 mM KCl, pH 7.0) to prevent differences in buffer composition and pH. Each titration consisted of 25 injections of a 2 μl peptide solution (280–400 μM) sequentially injected using a computer-controlled 50 μl syringe, into the calorimetric vessel (190 μl) containing the oligonucleotide (16–20 μM). A spacing of 300 s between each injection was applied to allow the system to reach the equilibrium. The heat generated by peptide dilution was assessed in a control experiment by injecting the peptide solution into the buffer (Supplementary Figure S30). All measurements were performed in triplicate. Subsequently, the interaction heat for each injection was calculated considering the correction for the heat of peptide dilution. The corrected heat values were plotted as a function of the molar ratio to provide binding isotherms. The isotherms were fitted with a multiple-sites binding model using the NanoAnalyze software (TA instruments) provided with the instrument. This analysis provided the equilibrium binding constant (Ka), binding enthalpy (ΔH°), and stoichiometry of interaction (n). The equilibrium dissociation constant (Kd), Gibbs free-energy change and entropy change were determined using the following relationships: Kd = 1/Ka, ΔG° = -RT ln Ka (R = 8.314 J mol^−1 K^−1, T = 298.15 K), and TΔS° = ΔH° – ΔG°.

A further assay addresses c-MYC G4. Kind of assay: Microscale thermophoresis (MST) binding to c-MYC G4. Details: species or system human. To be noted: 25°C, 20 nM FITC-labelled peptide, DNA serial dilution, 5 mM KH2PO4/K2HPO4 pH 7.0, 20 mM KCl, 0.1% Tween, 5% DMSO. As for the experimental part:
as §1

The next assay deals with U2OS cells. The experiment in a line: Viability assay (crystal violet), U2OS. The format is cell-based. To be noted: 72 h treatment, unconjugated peptides. As for the experimental part:
U2OS, HCT116 and MDA-MB-231 cells were purchased from the ATCC and grown in Dulbecco modified Eagle's medium (DMEM; EuroClone, Milan, Italy; ECM0728L) supplemented with 10% Fetal Bovine Serum (FBS, ThermoFisher Scientific/Gibco, Waltham, MA, USA; 10270-106), 2 mM L-glutamine and antibiotics in a humidified incubator at 37°C with 5% CO2 and atmospheric O2 concentration. Cell lines were authenticated and tested to be mycoplasma-free.
U2OS, HCT116, and MDA-MB-231 cells were seeded in 24-well plates at a density of 1 × 10^4, 20 × 10^3 and 12 × 10^3 for each well, respectively. After 24 h, cells were treated with the indicated peptides and incubated at 37°C for additional 72 h. Upon treatment completion, cell medium was removed, the wells were washed twice in phosphate-buffered saline (PBS) and fixed with 4% formaldehyde for 15 min at room temperature (RT). After washing, 500 μl of crystal violet staining solution (Sigma-Aldrich, St. Louis, MO, USA) was added to each well and incubated for 30 min at RT. Finally, the plates were rinsed twice with water, air-dried and cell pellets were dissolved in 400 μl of a 10% aqueous solution of acetic acid. In total, 200 μl of each sample was transferred to a 96-well plate, and the optical density was measured at 570 nm (OD570) with an ELISA reader (Thermo Scientific, Waltham, MA, USA). The average absorbance in each condition was used to calculate the viability expressed as a percentage of treated vs untreated conditions (CTR).

A further assay deals with BCL-2 G4. The experiment in a line: Microscale thermophoresis (MST) binding to BCL-2 G4. Details: species or system human. To be noted: 25°C, 20 nM FITC-labelled peptide, DNA serial dilution, 5 mM KH2PO4/K2HPO4 pH 7.0, 20 mM KCl, 0.1% Tween, 5% DMSO. How it is done:
as §1

The Kd is the concentration at which binding is half-saturated.

Where “and” joins values, the source holds several entries; their conditions need not be identical. Identical values can stand only once.

For “Ac-NHTGNSIRHRFRVYLSKRL-NH2 [Myb^397–415]”, the “Kd for binding to VEGFR-17T G4” value at VEGFR-17T G4 is “negligible binding”. The Ka with HER2 G4 (HER2 G4 16–20 μM, peptide 280–400 μM, 5 mM KH2PO4/K2HPO4, 20 mM KCl, pH 7.0) is 1.0 × 10^7 M^−1 and 1.0 (±0.1) ×10^7 M^−1; in the assay with c-KIT2 G4 [2] (c-KIT2 G4 16–20 μM, peptide 280–400 μM, 5 mM KH2PO4/K2HPO4, 20 mM KCl, pH 7.0), 5.0 × 10^6 M^−1 and 5.0 (±0.3) ×10^6 M^−1. Further, the Kd on HER2 G4 (HER2 G4, Kd = 1/Ka) is 0.1 µM; on HT1 G4, 0.9 µM; at c-KIT2 G4 [1], 0.13 µM; at HT2 G4, 1.18 µM; on c-KIT2 G4 [2] (c-KIT2 G4, Kd = 1/Ka) it was 0.2 µM; on c-MYC G4, 0.43 µM. At BCL-2 G4, the dissociation constant (Kd) worked out at 0.28 µM. In addition, the “Impact on cancer cell viability, peptides in native form” value with U2OS cells was “unable to significantly impact cancer cells viability”.

Source of the values: publication PMC11229374, “Unlocking the potential of protein-derived peptides to target G-quadruplex DNA: from recognition to anticancer activity” (Nucleic Acids Research, 2024).
